Source: PubChem BioAssay AID1963435 (Molecular Pharmacology Branch, DTP, NCI, 2024)
Values belong to the compound of their own block, whether it stands above or below them.

Tested on: PANC-1 complex spheroid growth, percent test/control
Assay: Anticancer human tumor PANC-1 cell line growth inhibition [Asc];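 also: spheroids exposed to agents for 7 days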;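 as to viability, T/C: percent viability relative to DMSO vehicle wells taken as 100%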
Details: for IC50: curve of first compound; for viability, T/C: stronger effect = lower value
Summary of the method: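 Concentration series start at each agent's clinical Cmax, or at 10 microM when none is established, and drop in half-log steps; agents are applied alone or together to complex spheroids built with HUVEC and hMSC.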

[1] = second compound 0.0316 µM, first compound 0.0316 µM
[2] = second compound 0.0316 µM, first compound 0.1 µM
[3] = second compound 0.0316 µM, first compound 0.316 µM
[4] = second compound 0.0316 µM, first compound 1 µM
[5] = second compound 0.1 µM, first compound 0.0316 µM
[6] = second compound 0.1 µM, first compound 0.1 µM
[7] = second compound 0.1 µM, first compound 0.316 µM
[8] = second compound 0.1 µM, first compound 1 µM
[9] = second compound 0.316 µM, first compound 0.0316 µM
[10] = second compound 0.316 µM, first compound 0.1 µM
[11] = second compound 0.316 µM, first compound 0.316 µM
[12] = second compound 0.316 µM, first compound 1 µM
[13] = second compound 1 µM, first compound 0.0316 µM
[14] = second compound 1 µM, first compound 0.1 µM
[15] = second compound 1 µM, first compound 0.316 µM
[16] = second compound 1 µM, first compound 1 µM

IC50 (second compound 0.00316 µM): > 1 µM | IC50 (second compound 0.01 µM): > 1 µM | IC50 (second compound 0.0316 µM): > 1 µM | IC50 (second compound 0.1 µM): > 1 µM | IC50 (second compound 0.316 µM): > 1 µM | IC50 (second compound 1 µM): > 1 µM
SMILES: O=C(c1ccc(F)c(F)c1Nc1ccc(I)cc1F)N1CC(O)([C@@H]2CCCCN2)C1 + CNC(C)C(=O)NC1CN(S(=O)(=O)c2cccc(S(=O)(=O)N3CCC4CCC(C(=O)NC(c5ccccc5)c5ccccc5)N4C(=O)C(NC(=O)C(C)NC)C3)c2)CCC2CCC(C(=O)NC(c3ccccc3)c3ccccc3)N2C1=O
viability, T/C (second compound 0.00316 µM, first compound 0.00316 µM): 98.6% | viability, T/C (second compound 0.00316 µM, first compound 0.01 µM): 88.8% | viability, T/C (second compound 0.00316 µM, first compound 0.0316 µM): 90.1% | viability, T/C (second compound 0.00316 µM, first compound 0.1 µM): 88% | viability, T/C (second compound 0.00316 µM, first compound 0.316 µM): 90.5% | viability, T/C (second compound 0.00316 µM, first compound 1 µM): 84.9% | viability, T/C (second compound 0.01 µM, first compound 0.00316 µM): 104% | viability, T/C (second compound 0.01 µM, first compound 0.01 µM): 86.1% | viability, T/C (second compound 0.01 µM, first compound 0.0316 µM): 89.5% | viability, T/C (second compound 0.01 µM, first compound 0.1 µM): 89% | viability, T/C (second compound 0.01 µM, first compound 0.316 µM): 85.9% | viability, T/C (second compound 0.01 µM, first compound 1 µM): 85.2% | viability, T/C (second compound 0.0316 µM, first compound 0.00316 µM): 88.2% | viability, T/C (second compound 0.0316 µM, first compound 0.01 µM): 86.1% | viability, T/C [1]: 118% | viability, T/C [2]: 93.6% | viability, T/C [3]: 86.6% | viability, T/C [4]: 87.3% | viability, T/C (second compound 0.1 µM, first compound 0.00316 µM): 101% | viability, T/C (second compound 0.1 µM, first compound 0.01 µM): 86.4% | viability, T/C [5]: 90.7% | viability, T/C [6]: 90.3% | viability, T/C [7]: 88.4% | viability, T/C [8]: 87.3% | viability, T/C (second compound 0.316 µM, first compound 0.00316 µM): 95.2% | viability, T/C (second compound 0.316 µM, first compound 0.01 µM): 89.5% | viability, T/C [9]: 98.9% | viability, T/C [10]: 89.9% | viability, T/C [11]: 96.8% | viability, T/C [12]: 89.3% | viability, T/C (second compound 1 µM, first compound 0.00316 µM): 91.4% | viability, T/C (second compound 1 µM, first compound 0.01 µM): 93% | viability, T/C [13]: 89.7% | viability, T/C [14]: 90% | viability, T/C [15]: 90.6% | viability, T/C [16]: 91.6%

IC50 (second compound 0.0316 µM): > 10 µM | IC50 (second compound 0.1 µM): > 10 µM | IC50 (second compound 0.316 µM): > 10 µM | IC50 (second compound 1 µM): > 10 µM | IC50 (second compound 3.16 µM): > 10 µM | IC50 (second compound 10 µM): > 10 µM
SMILES: C=CC(=O)N1CCN(c2nc(=O)n(-c3c(C)ccnc3C(C)C)c3nc(-c4c(O)cccc4F)c(F)cc23)C(C)C1 (centres undefined) + Cc1c(S(C)(=O)=O)c(-c2cc(F)cc(N3CCN(c4ccc(NS(=O)(=O)c5ccc(NC(CCN6CCC(C(=O)OCCCP(=O)(O)O)CC6)CSc6ccccc6)c(S(=O)(=O)C(F)(F)F)c5)cc4)CC3)c2)c(-c2ccc(Cl)cc2)n1C(C)C
viability, T/C [1]: 98.5% | viability, T/C [2]: 95.1% | viability, T/C [3]: 93.7% | viability, T/C [4]: 89.7% | viability, T/C (second compound 0.0316 µM, first compound 3.16 µM): 98.5% | viability, T/C (second compound 0.0316 µM, first compound 10 µM): 88.2% | viability, T/C [5]: 99.3% | viability, T/C [6]: 90.3% | viability, T/C [7]: 105% | viability, T/C [8]: 106% | viability, T/C (second compound 0.1 µM, first compound 3.16 µM): 88.8% | viability, T/C (second compound 0.1 µM, first compound 10 µM): 94.5% | viability, T/C [9]: 107% | viability, T/C [10]: 97% | viability, T/C [11]: 105% | viability, T/C [12]: 105% | viability, T/C (second compound 0.316 µM, first compound 3.16 µM): 98.4% | viability, T/C (second compound 0.316 µM, first compound 10 µM): 98% | viability, T/C [13]: 96.2% | viability, T/C [14]: 104% | viability, T/C [15]: 107% | viability, T/C [16]: 114% | viability, T/C (second compound 1 µM, first compound 3.16 µM): 95.6% | viability, T/C (second compound 1 µM, first compound 10 µM): 92.6% | viability, T/C (second compound 3.16 µM, first compound 0.0316 µM): 107% | viability, T/C (second compound 3.16 µM, first compound 0.1 µM): 109% | viability, T/C (second compound 3.16 µM, first compound 0.316 µM): 104% | viability, T/C (second compound 3.16 µM, first compound 1 µM): 102% | viability, T/C (second compound 3.16 µM, first compound 3.16 µM): 109% | viability, T/C (second compound 3.16 µM, first compound 10 µM): 92.4% | viability, T/C (second compound 10 µM, first compound 0.0316 µM): 166% | viability, T/C (second compound 10 µM, first compound 0.1 µM): 166% | viability, T/C (second compound 10 µM, first compound 0.316 µM): 162% | viability, T/C (second compound 10 µM, first compound 1 µM): 177% | viability, T/C (second compound 10 µM, first compound 3.16 µM): 175% | viability, T/C (second compound 10 µM, first compound 10 µM): 135%
